The results in this text go back to patent publication US20260022142A1, “MACROCYCLIC IMMUNOMODULATORS” (Bristol-Myers Squibb Company, priority 2022, published 2026).

pIC50: −log10 of the molar value. Bridge positions count the residues as written; N and C are the ends. Square brackets hold non-standard residues; d marks the D form. Peptide text beside a SMILES is read from it. * marks the point of attachment. ξ: configuration not given here. Phe(4-COOH) = N[C@@H](Cc1ccc(C(=O)O)cc1)C(=O)O; Bip = N[C@@H](Cc1ccc(-c2ccccc2)cc1)C(=O)O; Phe(4-CN) = N#Cc1ccc(C[C@H](N)C(=O)O)cc1; Phe(3-Me) = Cc1cccc(C[C@H](N)C(=O)O)c1; Phe(4-F) = N[C@@H](Cc1ccc(F)cc1)C(=O)O; Val(3-OH) = CC(C)(O)[C@H](N)C(=O)O; Cha = N[C@@H](CC1CCCCC1)C(=O)O; Thr(3ξ) = CC(O)[C@H](N)C(=O)O; dDab = NCC[C@@H](N)C(=O)O; Carboxymethyl = O=C(O)C*; Orn = NCCC[C@H](N)C(=O)O; Aun = NCCCCCCCCCCC(=O)O; Dab = NCC[C@H](N)C(=O)O; AEEA = NCCOCCOCC(=O)O

T1 sequence (Q15116 25-288): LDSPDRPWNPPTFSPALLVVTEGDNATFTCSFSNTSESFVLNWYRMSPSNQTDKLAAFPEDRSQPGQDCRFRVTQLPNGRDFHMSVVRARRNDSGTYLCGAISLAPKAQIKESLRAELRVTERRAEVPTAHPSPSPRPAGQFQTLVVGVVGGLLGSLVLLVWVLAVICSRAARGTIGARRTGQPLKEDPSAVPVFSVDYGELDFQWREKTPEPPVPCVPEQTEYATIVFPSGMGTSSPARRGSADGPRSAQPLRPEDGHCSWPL

This assay addresses T1, PD-1/PD-L1 interaction (PE-labeled human PD-L1-Ig binding to Jurkat cell line over-expressing human PD-1) (Homo sapiens, UniProt Q15116).
T1 construct: expressed in transfected cells; host or cells: Jurkat
Briefly: Jurkat-PD-1 Cell Binding High-Content Screening Assay (CBA). As to conditions: Jurkat cell line over-expressing human PD-1; PE-labeled PD-L1-Ig 20 nM final; read-out: Jurkat hPD1-PDL1 IC50. It is filed as cell-based. The procedure, abridged:
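First, compound is added to PD-1-expressing Jurkat cells in serum-containing DMEM and left 2 h at 37° C. Next, PE-conjugated PD-L1-Ig is introduced at 20 nM final concentration for 1 hour. Finally, cells are fixed in 4% paraformaldehyde with Hoechst 33342, washed and imaged.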
Turning to `Cc1cccc(C[C@@H]2NC(=O)[C@H](CC(=O)O)NC(=O)[C@H](Cc3ccc(OCC(=O)O)cc3)NC(=O)[C@H](Cc3ccc(F)cc3)NC(=O)CSC[C@@H](C(=O)N[C@@H](CCN)C(=O)NCCOCCOCC(=O)NCCOCCOCC(=O)NCCCCCCCCCCC(=O)O)NC(=O)[C@H](Cc3cnc[nH]3)NC(=O)[C@H](C(C)(C)O)NC(=O)[C@H](CC3CCCCC3)NC(=O)[C@H](CCN)NC(=O)[C@@H](CC(C)C)NC(=O)[C@H](CCCN)NC(=O)[C@H](Cc3ccc(C(=O)O)cc3)NC(=O)[C@H](Cc3ccc(-c4ccccc4)cc3)NC(=O)[C@H](Cc3ccc(C(=O)O)cc3)NC2=O)c1` [Compound 3767] ({CH2CO}-[Phe(4-F)]Y(Carboxymethyl)D[Phe(3-Me)][Phe(4-COOH)][Bip][Phe(4-COOH)][Orn][dL][Dab][Cha][Val(3-OH)]HC[Dab][AEEA][AEEA][Aun]-OH; thioether N-14), the pIC50 is 8.02. In the case of `Cc1cccc(C[C@@H]2NC(=O)[C@H](CC(=O)O)NC(=O)[C@H](Cc3ccc(OCC(=O)O)cc3)NC(=O)[C@H](Cc3ccc(F)cc3)NC(=O)CSC[C@@H](C(=O)N[C@@H](CCN)C(=O)NCCOCCOCC(=O)NCCOCCOCC(=O)NCCCCCCCCCCC(=O)O)NC(=O)[C@H](CCC(=O)O)NC(=O)[C@H](C(C)(C)O)NC(=O)[C@H](CC3CCCCC3)NC(=O)[C@H](CCN)NC(=O)[C@@H](CC(C)C)NC(=O)[C@H](CCCN)NC(=O)[C@H](Cc3ccc(C(=O)O)cc3)NC(=O)[C@H](Cc3ccc(-c4ccccc4)cc3)NC(=O)[C@H](Cc3ccc(C(=O)O)cc3)NC2=O)c1` [Compound 3768] ({CH2CO}-[Phe(4-F)]Y(Carboxymethyl)D[Phe(3-Me)][Phe(4-COOH)][Bip][Phe(4-COOH)][Orn][dL][Dab][Cha][Val(3-OH)]EC[Dab][AEEA][AEEA][Aun]-OH; thioether N-14) it was 8.19. The same measure for `Cc1cccc(C[C@@H]2NC(=O)[C@H](CC(=O)O)NC(=O)[C@H](Cc3ccc(OCC(=O)O)cc3)NC(=O)[C@H](C)NC(=O)CSC[C@@H](C(=O)N[C@@H](CCN)C(=O)NCCOCCOCC(=O)NCCCCCCCCCCC(=O)O)NC(=O)[C@H](CO)NC(=O)[C@H](C(C)(C)O)NC(=O)[C@H](CC3CCCCC3)NC(=O)[C@H](CCN)NC(=O)[C@@H](CC(C)C)NC(=O)[C@H](CCCN)NC(=O)[C@H](Cc3ccc(C(=O)O)cc3)NC(=O)[C@H](Cc3ccc(-c4ccccc4)cc3)NC(=O)[C@H](Cc3ccc(C(=O)O)cc3)NC2=O)c1` [Compound 3769] ({CH2CO}-AY(Carboxymethyl)D[Phe(3-Me)][Phe(4-COOH)][Bip][Phe(4-COOH)][Orn][dL][Dab][Cha][Val(3-OH)]SC[Dab][AEEA][Aun]-OH; thioether N-14): 8.46; for `Cc1cccc(C[C@@H]2NC(=O)[C@H](CC(=O)O)NC(=O)[C@H](Cc3ccc(OCC(=O)O)cc3)NC(=O)[C@@H](CCN)NC(=O)CSC[C@@H](C(=O)N[C@@H](CCN)C(=O)NCCCCCCCCCCC(=O)O)NC(=O)[C@H](Cc3cnc[nH]3)NC(=O)[C@H](C(C)(C)O)NC(=O)[C@H](CC3CCCCC3)NC(=O)[C@H](CCN)NC(=O)[C@@H](CC(C)C)NC(=O)[C@H](CCCN)NC(=O)[C@H](Cc3ccc(C(=O)O)cc3)NC(=O)[C@H](Cc3ccc(-c4ccccc4)cc3)NC(=O)[C@H](Cc3ccc(C(=O)O)cc3)NC2=O)c1` [Compound 3770] ({CH2CO}-[dDab]Y(Carboxymethyl)D[Phe(3-Me)][Phe(4-COOH)][Bip][Phe(4-COOH)][Orn][dL][Dab][Cha][Val(3-OH)]HC[Dab][Aun]-OH; thioether N-14): 6.62. In the case of `Cc1cccc(C[C@@H]2NC(=O)[C@H](CC(=O)O)NC(=O)[C@H](Cc3ccc(OCC(=O)O)cc3)NC(=O)[C@H](CCN)NC(=O)CSC[C@@H](C(=O)N[C@@H](CCN)C(=O)NCCOCCOCC(=O)NCCOCCOCC(=O)NCCOCCOCC(=O)NCCCCCCCCCCC(=O)O)NC(=O)[C@H](CCC(=O)O)NC(=O)[C@H](C(C)(C)O)NC(=O)[C@H](CC3CCCCC3)NC(=O)[C@H](CCN)NC(=O)[C@@H](CC(C)C)NC(=O)[C@H](CCCN)NC(=O)[C@H](Cc3ccc(OCC(=O)O)cc3)NC(=O)[C@H](Cc3ccc(-c4ccccc4)cc3)NC(=O)[C@H](Cc3ccc(OCC(=O)O)cc3)NC2=O)c1` [Compound 3771] ({CH2CO}-[Dab]Y(Carboxymethyl)D[Phe(3-Me)]Y(Carboxymethyl)[Bip]Y(Carboxymethyl)[Orn][dL][Dab][Cha][Val(3-OH)]EC[Dab][AEEA][AEEA][AEEA][Aun]-OH; thioether N-14) it was 8.33. Regarding `Cc1cccc(C[C@@H]2NC(=O)[C@H](CC(=O)O)NC(=O)[C@H](Cc3ccc(OCC(=O)O)cc3)NC(=O)[C@H](CCN)NC(=O)CSC[C@@H](C(=O)N[C@@H](CCN)C(=O)NCCOCCOCC(=O)NCCOCCOCC(=O)NCCOCCOCC(=O)NCCCCCCCCCCC(=O)O)NC(=O)[C@H](Cc3cnc[nH]3)NC(=O)[C@H](C(C)(C)O)NC(=O)[C@H](CC3CCCCC3)NC(=O)[C@H](CCN)NC(=O)[C@@H](CC(C)C)NC(=O)[C@H](CCCN)NC(=O)[C@H](Cc3ccc(C(=O)O)cc3)NC(=O)[C@H](Cc3ccc(-c4ccccc4)cc3)NC(=O)[C@H](Cc3ccc(C(=O)O)cc3)NC2=O)c1` [Compound 3772] ({CH2CO}-[Dab]Y(Carboxymethyl)D[Phe(3-Me)][Phe(4-COOH)][Bip][Phe(4-COOH)][Orn][dL][Dab][Cha][Val(3-OH)]HC[Dab][AEEA][AEEA][AEEA][Aun]-OH; thioether N-14), the pIC50 is 8.59. The same measure for `Cc1cccc(C[C@@H]2NC(=O)[C@H](CC(=O)O)NC(=O)[C@H](Cc3ccc(C#N)cc3)NC(=O)[C@H](C(C)O)NC(=O)CSC[C@@H](C(=O)N[C@@H](CCN)C(=O)NCCOCCOCC(=O)NCCOCCOCC(=O)NCCCCCCCCCCC(=O)O)NC(=O)[C@H](Cc3cnc[nH]3)NC(=O)[C@H](C(C)(C)O)NC(=O)[C@H](CC3CCCCC3)NC(=O)[C@H](CCN)NC(=O)[C@@H](CC(C)C)NC(=O)[C@H](CCCN)NC(=O)[C@H](Cc3ccc(OCC(=O)O)cc3)NC(=O)[C@H](Cc3ccc(-c4ccccc4)cc3)NC(=O)[C@H](Cc3ccc(OCC(=O)O)cc3)NC2=O)c1` (stereo partly drawn) [Compound 3773] ({CH2CO}-[Thr(3ξ)][Phe(4-CN)]D[Phe(3-Me)]Y(Carboxymethyl)[Bip]Y(Carboxymethyl)[Orn][dL][Dab][Cha][Val(3-OH)]HC[Dab][AEEA][AEEA][Aun]-OH; thioether N-14): 9.00. In the case of `Cc1cccc(C[C@@H]2NC(=O)[C@H](CC(=O)O)NC(=O)[C@H](Cc3ccc(C#N)cc3)NC(=O)[C@H](C(C)O)NC(=O)CSC[C@@H](C(=O)N[C@@H](CCN)C(=O)NCCOCCOCC(=O)NCCOCCOCC(=O)NCCCCCCCCCCC(=O)O)NC(=O)[C@H](Cc3cnc[nH]3)NC(=O)[C@H](C(C)O)NC(=O)[C@H](CC3CCCCC3)NC(=O)[C@H](CCN)NC(=O)[C@@H](CC(C)C)NC(=O)[C@H](CCCN)NC(=O)[C@H](Cc3ccc(OCC(=O)O)cc3)NC(=O)[C@H](Cc3ccc(-c4ccccc4)cc3)NC(=O)[C@H](Cc3ccc(OCC(=O)O)cc3)NC2=O)c1` (stereo partly drawn) [Compound 3774] ({CH2CO}-[Thr(3ξ)][Phe(4-CN)]D[Phe(3-Me)]Y(Carboxymethyl)[Bip]Y(Carboxymethyl)[Orn][dL][Dab][Cha][Thr(3ξ)]HC[Dab][AEEA][AEEA][Aun]-OH; thioether N-14) it was 8.20; in that of `Cc1cccc(C[C@@H]2NC(=O)[C@H](CC(=O)O)NC(=O)[C@H](Cc3ccc(C(=O)O)cc3)NC(=O)[C@H](C(C)O)NC(=O)CSC[C@@H](C(=O)N[C@@H](CCN)C(=O)NCCOCCOCC(=O)NCCOCCOCC(=O)NCCCCCCCCCCC(=O)O)NC(=O)[C@H](CO)NC(=O)[C@H](C(C)O)NC(=O)[C@H](CC3CCCCC3)NC(=O)[C@H](CCN)NC(=O)[C@@H](CC(C)C)NC(=O)[C@H](CCCN)NC(=O)[C@H](Cc3ccc(C(=O)O)cc3)NC(=O)[C@H](Cc3ccc(-c4ccccc4)cc3)NC(=O)[C@H](Cc3ccc(C(=O)O)cc3)NC2=O)c1` (stereo partly drawn) [Compound 3775] ({CH2CO}-[Thr(3ξ)][Phe(4-COOH)]D[Phe(3-Me)][Phe(4-COOH)][Bip][Phe(4-COOH)][Orn][dL][Dab][Cha][Thr(3ξ)]SC[Dab][AEEA][AEEA][Aun]-OH; thioether N-14), 8.24; in that of `Cc1cccc(C[C@@H]2NC(=O)[C@H](CC(=O)O)NC(=O)[C@H](Cc3ccc(C#N)cc3)NC(=O)[C@H](C(C)O)NC(=O)CSC[C@@H](C(=O)N[C@@H](CCN)C(=O)NCCOCCOCC(=O)NCCCCCCCCCCC(=O)O)NC(=O)[C@H](Cc3cnc[nH]3)NC(=O)[C@H](C(C)(C)O)NC(=O)[C@H](CC3CCCCC3)NC(=O)[C@H](CCN)NC(=O)[C@@H](CC(C)C)NC(=O)[C@H](CCCN)NC(=O)[C@H](Cc3ccc(OCC(=O)O)cc3)NC(=O)[C@H](Cc3ccc(-c4ccccc4)cc3)NC(=O)[C@H](Cc3ccc(OCC(=O)O)cc3)NC2=O)c1` (stereo partly drawn) [Compound 3776] ({CH2CO}-[Thr(3ξ)][Phe(4-CN)]D[Phe(3-Me)]Y(Carboxymethyl)[Bip]Y(Carboxymethyl)[Orn][dL][Dab][Cha][Val(3-OH)]HC[Dab][AEEA][Aun]-OH; thioether N-14), 8.44. Turning to `Cc1cccc(C[C@@H]2NC(=O)[C@H](CC(=O)O)NC(=O)[C@H](Cc3ccc(C(=O)O)cc3)NC(=O)[C@H](C(C)O)NC(=O)CSC[C@@H](C(=O)N[C@@H](CCN)C(=O)NCCOCCOCC(=O)NCCOCCOCC(=O)NCCCCCCCCCCC(=O)O)NC(=O)[C@H](CO)NC(=O)[C@H](C(C)(C)O)NC(=O)[C@H](CC3CCCCC3)NC(=O)[C@H](CCN)NC(=O)[C@@H](CC(C)C)NC(=O)[C@H](CCCN)NC(=O)[C@H](Cc3ccc(C(=O)O)cc3)NC(=O)[C@H](Cc3ccc(-c4ccccc4)cc3)NC(=O)[C@H](Cc3ccc(C(=O)O)cc3)NC2=O)c1` (stereo partly drawn) [Compound 3777] ({CH2CO}-[Thr(3ξ)][Phe(4-COOH)]D[Phe(3-Me)][Phe(4-COOH)][Bip][Phe(4-COOH)][Orn][dL][Dab][Cha][Val(3-OH)]SC[Dab][AEEA][AEEA][Aun]-OH; thioether N-14), the pIC50 was 8.47.

As usually defined, the pIC50 is the negative decadic logarithm of the IC50, by convention in mol/L.
